Data on 26 molecules can be found in patent publication EP2970215B1, “PYRROLIDINE DERIVATIVES, PHARMACEUTICAL COMPOSITIONS CONTAINING THEM, AND THEIR USE IN THERAPY” (AbbVie Deutschland GmbH & Co. KG, priority 2013, dated 2014).

One test concerns the target T1, human GlyT1c transporter (Homo sapiens, UniProt P48067).
T1 construct: expressed in transfected cells; host or cells: CHO cells (recombinant; line hGlyT1c_5_CHO is named for the uptake assay)
T1 sequence (P48067 1-706): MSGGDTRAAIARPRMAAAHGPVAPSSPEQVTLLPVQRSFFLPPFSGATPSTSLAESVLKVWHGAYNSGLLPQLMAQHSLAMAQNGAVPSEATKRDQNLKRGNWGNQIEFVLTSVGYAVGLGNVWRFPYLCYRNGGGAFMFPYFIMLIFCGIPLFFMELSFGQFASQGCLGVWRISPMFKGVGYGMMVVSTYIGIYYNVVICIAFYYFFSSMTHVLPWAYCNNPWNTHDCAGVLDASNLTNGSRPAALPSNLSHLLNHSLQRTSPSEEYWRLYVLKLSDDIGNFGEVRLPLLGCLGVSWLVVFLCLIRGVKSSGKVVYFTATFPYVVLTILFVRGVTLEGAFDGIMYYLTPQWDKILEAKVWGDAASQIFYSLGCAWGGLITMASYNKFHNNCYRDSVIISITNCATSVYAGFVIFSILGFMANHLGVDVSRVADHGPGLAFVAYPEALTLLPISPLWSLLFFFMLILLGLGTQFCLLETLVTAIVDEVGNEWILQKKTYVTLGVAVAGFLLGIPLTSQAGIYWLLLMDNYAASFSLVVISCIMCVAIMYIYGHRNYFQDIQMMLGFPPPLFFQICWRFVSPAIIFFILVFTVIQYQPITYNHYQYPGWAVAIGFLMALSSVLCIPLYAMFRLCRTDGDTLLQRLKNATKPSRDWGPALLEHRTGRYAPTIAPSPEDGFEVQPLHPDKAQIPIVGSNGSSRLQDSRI
Description: Radioligand binding assay using recombinant CHO cell membranes expressing human GlyT1. To be noted: radioligand binding to human GlyT1c transporter-expressing membranes. An excerpt: 2. Radioligand binding assays using recombinant CHO cell membranes expressing human GlyT1: […]
With `CC(CN[C@H]1CN(S(=O)(=O)c2cn(C)cn2)C[C@@H]1c1ccccc1)c1ccccc1` (stereo partly drawn) [Example 465, (3R,4S)-1-[(1-methyl-1H-imidazol-4-yl)sulfonyl]-4-phenyl-N-(2-phenylpropyl)pyrrolidin-3-amine], the Ki is ≤ 1 µM.

Take `Cn1cnc(S(=O)(=O)N2C[C@@H](Nc3ccnc(F)c3)[C@H](c3ccccc3)C2)c1` (relative stereo) [Example 236, 2-fluoro-N-{trans-1-[(1-methyl-1H-imidazol-4-yl)sulfonyl]-4-phenylpyrrolidin-3-yl}pyridin-4-amine]: the Ki is ≤ 10 µM.

As to `Cn1cnc(S(=O)(=O)N2C[C@@H](Nc3cc(F)cc(C(F)(F)F)c3)[C@H](c3ccccc3)C2)c1` (relative stereo) [Example 223, trans-N-[3-fluoro-5-(trifluoromethyl)phenyl]-1-[(1-methyl-1H-imidazol-4-yl)sulfonyl]-4-phenylpyrrolidin-3-amine], the Ki was ≤ 0.1 µM.

Consider `Cn1cnc(S(=O)(=O)N2C[C@@H](NCc3ccc(C(F)(F)F)cc3Cl)[C@H](c3ccc(F)cc3)C2)c1` (relative stereo) [Example 150, trans-N-[2-chloro-4-(trifluoromethyl)benzyl]-4-(4-fluorophenyl)-1-[(1-methyl-1H-imidazol-4-yl)sulfonyl]pyrrolidin-3-amine], for which the inhibition constant Ki is ≤ 0.001 µM.

Consider `Cn1cnc(S(=O)(=O)N2C[C@@H](NCc3ccc(Cl)cc3Cl)[C@H](c3ccc(F)cc3)C2)c1` (relative stereo) [Example 279, trans-N-(2,4-dichlorobenzyl)-4-(4-fluorophenyl)-1-[(1-methyl-1H-imidazol-4-yl)sulfonyl]pyrrolidin-3-amine], for which the Ki is ≤ 10 µM.

In the case of `Cn1cnc(S(=O)(=O)N2C[C@H](Nc3cc(Cl)c(Cl)cn3)[C@@H](c3ccc(F)cc3)C2)c1` [Example 706, 4,5-dichloro-N-{(3R,4S)-4-(4-fluorophenyl)-1-[(1-methyl-1H-imidazol-4-yl)sulfonyl]pyrrolidin-3-yl}pyridin-2-amine], the inhibitory constant (Ki) was ≤ 10 µM.

`CCCCC(F)(F)C(=O)N[C@H]1CN(S(=O)(=O)c2cn(C)cn2)C[C@@H]1c1ccc(F)cc1` [Example 708, 2,2-difluoro-N-{(3R,4S)-4-(4-fluorophenyl)-1-[(1-methyl-1H-imidazol-4-yl)sulfonyl]pyrrolidin-3-yl}hexanamide]: the Ki is ≤ 10 µM.

In the case of `O=S(=O)(CC1CCCCO1)N1CC(Nc2ccc(F)c(F)c2)C(c2ccccc2)C1` (centres unmarked) [Example 498, N-(3,4-difluorophenyl)-4-phenyl-1-[(tetrahydro-2H-pyran-2-ylmethyl)sulfonyl]pyrrolidin-3-amine], the Ki was ≤ 10 µM.

As to `Cn1cnc(S(=O)(=O)N2C[C@@H](Nc3cccc(C(F)(F)F)c3)[C@H](c3ncccc3F)C2)c1` (relative stereo) [Example 798, Trans-4-(3-fluoropyridin-2-yl)-1-[(1-methyl-1H-imidazol-4-yl)sulfonyl]-N-[3-(trifluoromethyl)phenyl]pyrrolidin-3-amine], the Ki is ≤ 0.1 µM.

As to `O=C(N[C@@H]1CN(S(=O)(=O)c2ccc(C(F)(F)F)cc2)C[C@H]1c1ccccc1)c1cccc(C(F)(F)F)c1Cl` (relative stereo) [Example 143, 2-chloro-N-[trans-4-phenyl-1-{[4-(trifluoromethyl)phenyl]sulfonyl}pyrrolidin-3-yl]-3-(trifluoromethyl)benzamide], the Ki was ≤ 10 µM.

For `Cn1cnc(S(=O)(=O)N2C[C@@H](Nc3cc(F)ccc3F)[C@H](c3ccc(F)cc3)C2)c1` (relative stereo) [Example 164, trans-N-(2,5-difluorophenyl)-4-(4-fluorophenyl)-1-[(1-methyl-1H-imidazol-4-yl)sulfonyl]pyrrolidin-3-amine], the Ki is ≤ 10 µM.

As to `Cn1cnc(S(=O)(=O)N2C[C@@H](NC(=O)c3cccc(C(F)(F)F)c3Cl)[C@H](c3ccccc3Cl)C2)c1` (relative stereo) [Example 115, 2-chloro-N-{trans-4-(2-chlorophenyl)-1-[(1-methyl-1H-imidazol-4-yl)sulfonyl]pyrrolidin-3-yl}-3-(trifluoromethyl)benzamide], the inhibition constant (Ki) was ≤ 0.1 µM.

In the case of `CCOCCCNC[C@@H]1CN(S(=O)(=O)c2cn(C)cn2)C[C@H]1c1ccc(F)cc1` (relative stereo) [Example 592, 3-ethoxy-N-({trans-4-(4-fluorophenyl)-1-[(1-methyl-1H-imidazol-4-yl)sulfonyl]pyrrolidin-3-yl}methyl)propan-1-amine], the Ki was ≤ 10 µM.

Turning to `Cn1cnc(S(=O)(=O)N2C[C@H](Nc3cc(-c4ccncc4)ccn3)[C@@H](c3ccc(F)cc3)C2)c1` [Example 751, N-{(3R,4S)-4-(4-fluorophenyl)-1-[(1-methyl-1H-imidazol-4-yl)sulfonyl]pyrrolidin-3-yl}-4,4'-bipyridin-2-amine], the Ki is ≤ 0.1 µM.

On to `Cn1cnc(S(=O)(=O)N2CC(c3ccc(F)cc3)C(c3ccccc3Cl)C2)c1` (centres unmarked) [Example 339, 4-{[3-(2-chlorophenyl)-4-(4-fluorophenyl)pyrrolidin-1-yl]sulfonyl}-1-methyl-1H-imidazole], for which the Ki is ≤ 10 µM.

Consider `Cc1cc(N[C@@H]2CN(S(=O)(=O)c3cn(C)cn3)C[C@H]2c2ncccc2F)ccc1F` (relative stereo) [Example 775, Trans-N-(4-fluoro-3-methylphenyl)-4-(3-fluoropyridin-2-yl)-1-[(1-methyl-1H-imidazol-4-yl)sulfonyl]pyrrolidin-3-amine], for which the Ki was ≤ 1 µM.

As for `Cn1cnc(S(=O)(=O)N2C[C@@H](C(=O)Nc3ccccc3)[C@H](c3ccc(F)cc3)C2)c1` (relative stereo) [Example 242, trans-4-(4-fluorophenyl)-1-[(1-methyl-1H-imidazol-4-yl)sulfonyl]-N-phenylpyrrolidine-3-carboxamide], the Ki is ≤ 10 µM.

On to `Cn1cnc(S(=O)(=O)N2C[C@@H](Nc3ccccn3)[C@H](c3ccc(F)cc3)C2)c1` (relative stereo) [Example 178, N-{trans-4-(4-fluorophenyl)-1-[(1-methyl-1H-imidazol-4-yl)sulfonyl]pyrrolidin-3-yl}pyridin-2-amine], for which the Ki is ≤ 1 µM.

Take `Cn1cnc(S(=O)(=O)N2C[C@H](NCC(C)(C)C)[C@@H](c3ccccc3)C2)c1` [Example 436, (3R,4S)-N-(2,2-dimethylpropyl)-1-[(1-methyl-1H-imidazol-4-yl)sulfonyl]-4-phenylpyrrolidin-3-amine]: the Ki is ≤ 1 µM.

For the molecule `Cn1cnc(S(=O)(=O)N2C[C@@H](Nc3ccc(F)c(C(F)(F)F)c3)[C@H](c3ncccc3F)C2)c1` (relative stereo) [Example 767, Trans-4-(3-fluoropyridin-2-yl)-N-[4-fluoro-3-(trifluoromethyl)phenyl]-1-[(1-methyl-1H-imidazol-4-yl)sulfonyl]pyrrolidin-3-amine], the Ki is ≤ 0.1 µM.

`CCCCCCNC(=O)[C@@H]1CN(S(=O)(=O)c2cn(C)cn2)C[C@H]1c1ccc(F)cc1` (relative stereo) [Example 627, Trans-4-(4-fluorophenyl)-N-hexyl-1-[(1-methyl-1H-imidazol-4-yl)sulfonyl]pyrrolidine-3-carboxamide]: the Ki was ≤ 1 µM.

On to `Cn1cnc(S(=O)(=O)N2C[C@@H](COc3cccc(C(F)(F)F)c3Cl)[C@H](c3ccc(F)cc3)C2)c1` (relative stereo) [Example 250, 4-{[trans-3-{[2-chloro-3-(trifluoromethyl)phenoxy]methyl}-4-(4-fluorophenyl)pyrrolidin-1-yl]sulfonyl}-1-methyl-1H-imidazole], for which the Ki is ≤ 10 µM.

As to `CCCCCN[C@H]1CN(S(=O)(=O)c2cn(C)cn2)C[C@@H]1c1ccc(F)cc1` [Example 664, (3R,4S)-4-(4-fluorophenyl)-1-[(1-methyl-1H-imidazol-4-yl)sulfonyl]-N-pentylpyrrolidin-3-amine], the Ki is ≤ 0.1 µM.

For `O=S(=O)(c1ccc2c(c1)CCO2)N1CC(Nc2ccc(F)c(F)c2)C(c2ccccc2)C1` (centres unmarked) [Example 519, N-(3,4-difluorophenyl)-1-(2,3-dihydro-1-benzofuran-5-ylsulfonyl)-4-phenylpyrrolidin-3-amine], the Ki was > 10 µM.

As to `Cn1cnc(S(=O)(=O)N2C[C@@H](C(=O)Nc3ccc(C(F)(F)F)cc3)[C@H](c3ccc(F)cc3)C2)c1` (relative stereo) [Example 243, Trans-4-(4-fluorophenyl)-1-[(1-methyl-1H-imidazol-4-yl)sulfonyl]-N-[4-(trifluoromethyl)phenyl]pyrrolidine-3-carboxamide], the Ki was ≤ 1 µM.

The same test, now with this note: radioligand binding, recombinant CHO cell membranes expressing human GlyT1c.
On to `Cn1cnc(S(=O)(=O)N2C[C@@H](Nc3cc(C(F)(F)F)c(Cl)cn3)[C@H](C3CCCO3)C2)c1` (relative stereo) [Example 844, 5-Chloro-N-[trans-1-[(1-methyl-1H-imidazol-4-yl)sulfonyl]-4-(tetrahydrofuran-2-yl)pyrrolidin-3-yl]-4-(trifluoromethyl)pyridin-2-amine], for which the Ki is ≤ 1 µM.
